Values quoted from earlier work as cited in US20050143441A1, “Novel medical combination treatment of obesity involving 4,5-dihydro-1H-pyrazole derivatives having CB1-antagonistic activity” (priority 2003, published 2005).

Assays:
[1] = system: excretion of fat from the diet; settings: healthy male volunteers, 5 days
[2] = clinically obese patients
[3] = in vivo
[4] = system: carragheenin induced swelling; settings: mice
[5] = molecular target: T1, porcine pancreatic lipase (Sus scrofa, UniProt P00591)
T1 sequence (P00591 1-450): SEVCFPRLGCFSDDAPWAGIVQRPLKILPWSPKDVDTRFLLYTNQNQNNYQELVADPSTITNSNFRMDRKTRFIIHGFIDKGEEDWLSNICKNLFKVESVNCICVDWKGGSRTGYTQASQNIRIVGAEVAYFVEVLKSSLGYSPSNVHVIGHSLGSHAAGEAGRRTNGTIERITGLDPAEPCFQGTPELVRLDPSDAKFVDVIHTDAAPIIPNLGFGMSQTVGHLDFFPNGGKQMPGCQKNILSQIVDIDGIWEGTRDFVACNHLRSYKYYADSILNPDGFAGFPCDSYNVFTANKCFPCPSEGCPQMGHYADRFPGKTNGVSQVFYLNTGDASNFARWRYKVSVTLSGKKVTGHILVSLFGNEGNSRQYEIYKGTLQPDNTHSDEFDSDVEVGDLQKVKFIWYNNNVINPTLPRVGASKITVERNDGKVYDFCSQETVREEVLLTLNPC

[6] = system: plasma lipases; settings: relative to THL

CCCCCCCCCCCCCCCCOc1nc2ccc(C)cc2c(=O)o1 [ATL-962, 2-hexadecyloxy-6-methyl-4H-3,1-benzoxazin-4-one]
safety and tolerability, phase Ib [1]: safe and well tolerated | safety and tolerability, phase IIb [2]: safe and generally well tolerated | toxicity in preclinical studies [3]: no toxicity was observed

CC[C@@H](C)[C@@H](O)[C@H](C)C(=O)[C@H](C)/C=C(\C)C[C@H](C)[C@@H]1OC(=O)[C@H]1CC [Ebelactone B]
carragheenin induced swelling [4]: reduces carragheenin induced swelling

CCCCCCC[C@@H](C[C@@H]1OC(=O)[C@H]1CCCCCCCC(C)C)OC(=O)[C@H](C)NC=O [Panclicin A]
mode of inhibition of pancreatic lipase (irreversibility) [5]: irreversibly inhibit pancreatic lipase | potency against plasma lipases compared with THL [6]: same potency as THL

CCCCCCC[C@@H](C[C@@H]1OC(=O)[C@H]1CCCCCCCC(C)C)OC(=O)CNC=O [Panclicin C]
mode of inhibition of pancreatic lipase (irreversibility) [5]: irreversibly inhibit pancreatic lipase

CCCCCCCCCC[C@@H]1C(=O)O[C@H]1C[C@H](CCCCCCC)OC(=O)CNC=O [Panclicin D]
mode of inhibition of pancreatic lipase (irreversibility) [5]: irreversibly inhibit pancreatic lipase

CCCCCCCCCCCC[C@@H]1C(=O)O[C@H]1C[C@H](CCCCCCC)OC(=O)CNC=O [Panclicin E]
mode of inhibition of pancreatic lipase (irreversibility) [5]: irreversibly inhibit pancreatic lipase

CCCCCCCCCCC[C@@H](C[C@@H]1OC(=O)[C@H]1CCCCCC)OC(=O)[C@H](CC(C)C)NC=O [tetrahydrolipstatin, (2S,3S,5S)-5-((S)-2-4-methylvaleryloxy)-2-heyl-3-hydroxy-hexadecanoic acid lactone]
fat excreted, average ([1]; orlistat 120 mg tid): 5.6 (+/−3.8) g/day
